According to patent US10035806B2, “Derivatized corroles and metallocorroles and their use as imaging and therapeutic agents” (CALIFORNIA INSTITUTE OF TECHNOLOGY, priority 2015, dated 2018):

Legend:
Assay in all cases: NCI60 anticancer drug screen
Assay type in all cases: cell-based, human
HCC-2998 = HCC-2998 (Colon cancer), 10 μM, 48 h
Description: (§1) The aminocaproate-substituted corrole Complex 3 was submitted to NCI for cytotoxic screening at a single high dose (10−5M) in a panel of 60 human tumor cell lines (NCI60). Details of the cytotoxicity assessment in the NCI anticancer drug screen have been described previously, in Monks A, et al. (1991) Feasibility of a high-flux anticancer drug screen using a diverse panel of cultured human tumor cell lines. J Natl Cancer Inst 83(11):757-766, this reference being incorporated by reference for these teachings.
(§2) In view of the promising results observed for carboxylated corroles, Complex 3 was selected for expanded cell screening to uncover additional susceptible cancer cell lines. The cytotoxic activity of Complex 3 was tested at a dose of 10^−5 M against 60 human cancer cell lines representing nine distinct tumor types in the anticancer screening program of the National Cancer Institute (NCI). The in vitro parameters for cytotoxicity, growth percent, and lethality were obtained for Complex 3 and reported as a mean graph of the percent growth of treated cells (FIG. 7). Bars in the mean graph depict the deviation of individual tumor cell lines from the overall mean value for all cells tested. Bars that project to the right of the mean represent cell lines that are more sensitive to Complex 3, whereas cell lines less sensitive to the compound display bars that project to the left.
(§3) The numerical values associated with this assay represent growth relative to the no-drug control and the numbers of cells at time 0 (FIG. 7). This allows detection of both growth inhibition (values between 0 and 100) and lethality (values less than 0). For example, a value of 100 signifies no growth inhibition, 40 means 60% growth inhibition, 0 means no net growth over the course of the experiment, −40 means 40% lethality, and −100 indicates all cells are dead. […] Growth inhibitions reflect cytostatic activity of the compound as previously shown for Complex 2. In contrast, cell lethality is only evident in melanoma cells, specifically the LOX IMVI and SK-MEL-28 cell lines.

SW-620 = SW-620 (Colon cancer), 10 μM, 48 h
Description: as §1, §2, §3

HL-60 (TB) = HL-60 (TB) (Leukemia), 10 μM, 48 h
Description: as §1, §2, §3

RXF 398 = RXF 398 (Renal Cancer), 10 μM, 48 h
Description: as §1, §2, §3

OVCAR-3 = OVCAR-3 (Ovarian Cancer), 10 μM, 48 h
Description: as §1, §2, §3

UACC-257 = UACC-257 (Melanoma), 10 μM, 48 h
Description: as §1, §2, §3

UACC-62 = UACC-62 (Melanoma), 10 μM, 48 h
Description: as §1, §2, §3

SK-MEL-2 = SK-MEL-2 (Melanoma), 10 μM, 48 h
Description: as §1, §2, §3

COLO 205 = COLO 205 (Colon cancer), 10 μM, 48 h
Description: as §1, §2, §3

T-47D = T-47D (Breast Cancer), 10 μM, 48 h
Description: as §1, §2, §3

OVCAR-5 = OVCAR-5 (Ovarian Cancer), 10 μM, 48 h
Description: as §1, §2, §3

HCT-116 = HCT-116 (Colon cancer), 10 μM, 48 h
Description: as §1, §2, §3

HPO-92 = HPO-92 (Non-small-cell lung cancer), 10 μM, 48 h
Description: as §1, §2, §3

NCI-H226 = NCI-H226 (Non-small-cell lung cancer), 10 μM, 48 h
Description: as §1, §2, §3

NCI-H522 = NCI-H522 (Non-small-cell lung cancer), 10 μM, 48 h
Description: as §1, §2, §3

OVCAR-4 = OVCAR-4 (Ovarian Cancer), 10 μM, 48 h
Description: as §1, §2, §3

OVCAR-8 = OVCAR-8 (Ovarian Cancer), 10 μM, 48 h
Description: as §1, §2, §3

BT-549 = BT-549 (Breast Cancer), 10 μM, 48 h
Description: as §1, §2, §3

NCI-H460 = NCI-H460 (Non-small-cell lung cancer), 10 μM, 48 h
Description: as §1, §2, §3

DU-145 = DU-145 (Prostate Cancer), 10 μM, 48 h
Description: as §1, §2, §3

SK-MEL-5 = SK-MEL-5 (Melanoma), 10 μM, 48 h
Description: as §1, §2, §3

SN12C = SN12C (Renal Cancer), 10 μM, 48 h
Description: as §1, §2, §3

HS 578T = HS 578T (Breast Cancer), 10 μM, 48 h
Description: as §1, §2, §3

U251 = U251 (CNS Cancer), 10 μM, 48 h
Description: as §1, §2, §3

SNB-75 = SNB-75 (CNS Cancer), 10 μM, 48 h
Description: as §1, §2, §3

SF-268 = SF-268 (CNS Cancer), 10 μM, 48 h
Description: as §1, §2, §3

CCRF-CEM = CCRF-CEM (Leukemia), 10 μM, 48 h
Description: as §1, §2, §3

HCT-15 = HCT-15 (Colon cancer), 10 μM, 48 h
Description: as §1, §2, §3

O=C(O)CCCCCNc1c(F)c(F)c(C2=C3C=CC4=[N+]3[Ga-]35[n]6c2ccc6C(c2c(F)c(F)c(F)c(F)c2F)=c2ccc([n]23)=C(c2c(F)c(F)c(F)c(F)c2F)c2ccc4[n]25)c(F)c1F (stereo not shown) [Complex 3]
Growth inhibition, % (HCC-2998): 60.1%
Growth inhibition, % (SW-620): 75.9%
Growth inhibition, % (HL-60 (TB)): 86.1%
Growth inhibition, % (RXF 398): 96.7%
Growth inhibition, % (OVCAR-3): 75.9%
Growth inhibition, % (UACC-257): 37.2%
Growth inhibition, % (UACC-62): 91.6%
Growth inhibition, % (SK-MEL-2): 64.1%
Growth inhibition, % (COLO 205): 51.7%
Growth inhibition, % (T-47D): 45.9%
Growth inhibition, % (OVCAR-5): 53.1%
Growth inhibition, % (HCT-116): 75.5%
Growth inhibition, % (HPO-92): 81.6%
Growth inhibition, % (NCI-H226): 61.1%
Growth inhibition, % (NCI-H522): 44.6%
Growth inhibition, % (OVCAR-4): 59.9%
Growth inhibition, % (OVCAR-8): 67.3%
Growth inhibition, % (BT-549): 73.0%
Growth inhibition, % (NCI-H460): 94.2%
Growth inhibition, % (DU-145): 64.7%
Growth inhibition, % (SK-MEL-5): 72.0%
Growth inhibition, % (SN12C): 78.8%
Growth inhibition, % (HS 578T): 81.2%
Growth inhibition, % (U251): 77.4%
Growth inhibition, % (SNB-75): 30.7%
Growth inhibition, % (SF-268): 65.8%
Growth inhibition, % (CCRF-CEM): 91.1%
Growth inhibition, % (HCT-15): 57.0%
